Experiments:
Assay type in all cases: in vivo, C57 mice
[1] = Body weight, bleomycin-induced mice, 7-d modeling; conditions: Dex 1-1.5 mg/kg i.p. every two days
Protocol: (§1) Animals of 7-d modeling were randomly divided into 7 groups according to the table below, 6 animals per control group and 12 animals per test group.
(§2) Drug administration began 24 h or 7 d after modeling. […] The day of the first administration was counted as D1, the next day as D2, and so forth. The normal groups and Model groups were given 200 µL of normal saline daily by gavage administration.
All the animals were observed once daily during the experiment for death or dying, feces, ingestion, mental state and behavior and activity. Abnormalities were recorded in time. All the animals were weighed once before grouping and once before each dose.
(§3) In this experiment, 105 C57 mice were randomly selected and subjected to organ drip administration of a single dose of bleomycin at 2.5 mg/kg for 24 h or 7 d for induction. After 7 days of induction, 3 model mice were randomly selected and dissected to determine whether the modeling was successful. After modeling, the survival of the mice was recorded. The living states of the mice were observed and their body weight was measured at a fixed time.
(§4) A normal control group comprised 6 mice.

[2] = system: bleomycin-induced mouse lung disease model; experiment: Lung and spleen coefficients, 7-d modeling; conditions: Dex 1-1.5 mg/kg i.p. every two days
Protocol: as §1, §2
Method: after being euthanized, the animals were dissected, and the heart, liver, spleen, lung and kidney were weighed.
as §3, §4

[3] = system: inflammatory cells in bronchoalveolar lavage fluid; experiment: Inflammatory cell assay of bronchoalveolar lavage fluid, 7-d modeling; conditions: Dex 1-1.5 mg/kg i.p. every two days
Protocol: as §1, §2
After the mouse was fixed, its trachea and chest cavity were exposed, and the trachea and the esophagus were bluntly separated with an ophthalmic curved forceps. Two sutures were made between the trachea and the esophagus. An intravenous trocar was inserted into the trachea and ligated at the site where it entered the trachea and at its distal end. A 1 mL syringe was connected to draw in 1 mL of pre-cooled PBS and infuse it into the lung tissue. Significant filling in the lung could be seen with the naked eye. The syringe was held for 10 s and withdrawal was performed. The infusion/withdrawal cycle was repeated 3 times. The withdrawn BALF was transferred to a clean EP tube and centrifuged at 4° C., and the supernatant was collected and preserved at -80° C. The cells were subjected to routine tests.
Upon the end of the administration, the leukocytes (lymphocytes, neutrophils and monocytes) in the bronchoalveolar lavage fluids of the mice in the 7-d modeling groups were classified and counted.

[4] = system: bleomycin-induced mouse lung disease model; experiment: Lung HE pathological analysis (Ashcroft score), 24-h modeling; conditions: 24-h modeling, Dex 1-1.5 mg/kg i.p. every two days
Protocol: Animals of 24-h modeling were randomly divided into 5 groups according to the table below, 3 animals per control group and 5 animals per test group.
as §2
(§5) 1. […] Specifically, a mold was prepared first, and then the tissue was laid flat at the bottom of the mold; after the section face was arranged facedown, the embedding box cover was put on the mold; molten wax was poured into the mold until it overflowed the mold, and then the mold was gently lifted up and laid flat in a freezing platform; after being rapidly cooled and frozen for about 10 min, the mold was took out. • 6) Sectioning method
(§6) 2. HE staining • 1) A flat section was selected for HE staining. • 2) The section was dewaxed in xylene I for 20 min. • 3) The section was dewaxed in xylene II for 20 min. • 4) The section was soaked in absolute ethanol for 10 min. • 5) Stepwise rehydrating, in absolute ethanol for 5 min, in 90% ethanol for 5 min, in 80% ethanol for 5 min, and in […] for 5 min; and a water wash. • 6) Staining with hematoxylin for 3-5 min. A water wash. • 7) Differentiating with 1% HCl-[…] for 5-10 s. A water wash, and bluing. • 8) Staining with eosin for 30-60 s. A water wash. • 9) Washing with 80% ethanol for 3-5 s, with 95% ethanol for 3-5 s, and with absolute ethanol for 3-5 s. • 10) Coverslipping with neutral resin, observing under a microscope, and photographing.
(§7) HE sectioning: 3 sections were consecutively made; flat sections of complete tissue were selected for HE staining; each of the sections was photographed in 3 randomly selected fields of view at 200x magnification. The obtained images were scored.
(§8) The general standard Ashcroft scoring method for pulmonary fibrosis tissues was adopted in HE scoring. The HE pathological analysis is an outcome evaluation for irreversible pulmonary fibrosis that develops in interstitial lung disease models.
For 5 animals from each of the 24-h modeling groups, a total of 15 HE fields of view were scored. […] According to the scoring criteria, a score below 3 points indicates there has been no significant structural change accompanying in the lung tissues.

[5] = system: bleomycin-induced mouse lung disease model; experiment: Lung HE pathological analysis (Ashcroft score), 7-d modeling; conditions: 7-d modeling, Dex 1-1.5 mg/kg i.p. every two days
Protocol: as §1, §2, §5, §6, §7, §8
For 6 animals from each of the 7-d modeling groups, a total of 18 HE fields of view were scored.

**Q.** For `C[C@@H]1C[C@H]2[C@@H]3CCC4=CC(=O)C=C[C@]4(C)[C@@]3(F)[C@@H](O)C[C@]2(C)[C@@]1(O)C(=O)CO` [Dex, dexamethasone, reference compound], which Body weight ([1]; D1) is on record?
**A.** The Body weight was 17.79 ± 0.89 g.

**Q.** What about the Body weight ([1]; D7) of the same compound?
**A.** The Body weight was 17.61 ± 1.02 g.

**Q.** And the Body weight ([1]; D14)?
**A.** The Body weight was 17.45 ± 0.96 g.

**Q.** And the Body weight ([1]; D21)?
**A.** Its Body weight is 17.43 ± 0.92 g.

**Q.** And the Body weight ([1]; D28)?
**A.** The Body weight was 17.38 ± 0.85 g.

**Q.** What about the “Body weight decreased by” value ([1]; day 1 to day 28) of the same compound?
**A.** The value was 2.42%.

**Q.** And the Lung coefficient [2]?
**A.** Its Lung coefficient is 0.96±0.08%.

**Q.** What about the Spleen coefficient [2] of the same compound?
**A.** The Spleen coefficient was 0.43±0.04%.

**Q.** And the “Absolute leukocyte count in bronchoalveolar lavage fluid” value [3]?
**A.** Its value is 0.57±0.02 10^9/L.

**Q.** What about the “Absolute lymphocyte count in bronchoalveolar lavage fluid” value [3] of the same compound?
**A.** Its value is 0.46±0.03 10^9/L.

**Q.** And the “Absolute monocyte count in bronchoalveolar lavage fluid” value [3]?
**A.** The value was 0.03±0.01 10^9/L.

**Q.** What about the “Absolute neutrophil count in bronchoalveolar lavage fluid” value [3] of the same compound?
**A.** Its value is 0.0±0.01 10^9/L.

**Q.** What about the “Percent reduction in leukocytes in bronchoalveolar lavage fluid with respect to the Model group” value [3] of the same compound?
**A.** The value was 45.32%.

**Q.** What about the “Percent reduction in lymphocytes in bronchoalveolar lavage fluid with respect to the Model group” value [3] of the same compound?
**A.** The value was 47.51%.

**Q.** What about the “Percent reduction in monocytes in bronchoalveolar lavage fluid with respect to the Model group” value [3] of the same compound?
**A.** Its value is 46.43%.

**Q.** And the “Percent reduction in neutrophils in bronchoalveolar lavage fluid with respect to the Model group” value [3]?
**A.** Its value is 68.52%.

**Q.** And the “HE score and benefit rate, >4 points (percent of fields)” value [4]?
**A.** The value was 0%.

**Q.** And the “HE score and benefit rate, >5, points (percent of fields)” value [4]?
**A.** The value was 0% 0%.

**Q.** And the “HE score and benefit rate, ≥3 points (percent of fields)” value [4]?
**A.** The value was 53.3%.

**Q.** And the “HE score (pulmonary fibrosis, Ashcroft)” value ([4]; 15 fields of view)?
**A.** Its value is 2.53 ± 0.52.

**Q.** And the “HE score and benefit rate, ≥4 points (fields/total); pathological tissue change” value [5]?
**A.** The value was 7/18.

**Q.** What about the “HE score and benefit rate, ≥4 points (percent of fields); probability of pathological tissue change” value [5] of the same compound?
**A.** Its value is 38.9%.

**Q.** And the “HE score and benefit rate, ≥6 points (fields/total)” value [5]?
**A.** The value was 0/18.

**Q.** And the “HE score and benefit rate, ≥6 points (percent of fields)” value [5]?
**A.** The value was 0%.

**Q.** And the “HE score (pulmonary fibrosis, Ashcroft)” value ([5]; 18 fields of view)?
**A.** The value was 3.28 ± 0.83.

Source: patent US20230210819A1, “USE OF BENZISOSELAZOLE DERIVATIVE FOR ANTI-CORONAVIRUS AND CONTROL OF INTERSTITIAL LUNG DISEASE (ILD) RELATED TO CORONAVIRUS” (SHANGHAI YUANXI MEDICINE CORP., priority 2020, published 2023)
